Data set [1] has as its system patients with HE. Type of data set: in vivo, human. An excerpt: Total number of hospitalizations, duration of hospitalizations, HE endpoints, and cost of therapy were compared between the 2 treatment regimens.
The subject of data set [2] is liver transplant patients who presented with HE. Kind of data set: Chart review of 39 liver transplant patients with HE. Type of data set: in vivo, human.
The conditions of data set [3]: male, human, in vivo.
Data set [4] concerns patients with HE. The settings on record: rifaximin 1200 mg/day, neomycin 3 g/day; cited from earlier work.

On to `OC[C@H]1O[C@@H](O[C@@H]2[C@@H](CO)OC(O)(CO)[C@H]2O)[C@H](O)[C@@H](O)[C@H]1O` (mixture of isomers) [lactulose], for which the “patients with Conn scores of 3 or 4” value in the data set with patients with HE [1] (end of treatment period) is 25%. Also, in the data set with patients with HE [1] (human, in vivo), the days hospitalized was found to be 7.3 days; the “patients with asterixis at end of treatment period” value came to 93%; the “patients with diarrhea, flatulence, and abdominal pain” value is on record as “significantly more patients”. This compound also came in with a hospitalizations with patients with HE [1] (rifaximin 400 mg 3 times/day, lactulose 30 mL twice daily) of 1.6. Also, the hospitalizations reported entry in data set [2] (15 rifaximin, 24 lactulose patients) is given as “Nineteen”. The “average length of stay” value in data set [2] (human, in vivo) worked out at 5.0 days.

Turning to `CO[C@H]1/C=C/O[C@@]2(C)Oc3c(C)c(O)c4c(O)c(c5c(nc6cc(C)ccn65)c4c3C2=O)NC(=O)/C(C)=C\C=C\[C@H](C)[C@H](O)[C@@H](C)[C@@H](O)[C@@H](C)[C@H](OC(C)=O)[C@@H]1C` [14C-Rifaximin], the “amount of radioactivity in urine (bound)” value in data set [3] is listed as < 0.4 % of the dose.

Take neomycin: the “efficacy in patients with HE” value with patients with HE [4] is “comparable efficacy”.

These data come from patent publication US9629828B2, “Methods of treating traveler's diarrhea and hepatic encephalopathy” (priority 2008, dated 2017).
